Measurements taken from ChEMBL document CHEMBL1201862, “PubChem BioAssay data set” (2004).
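Exposure lasted 48 hours, with cells grown in 96-well plates and compounds tested at five concentrations. The concentration for 50% growth inhibition is given as GI50.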 Calls of active or inactive are those of the source. Rule as the data show it: active = GI50 up to about 1.1 µM and inactive = higher.

How the values were obtained:
Assay in all cases: growth of human tumour cells (NCI), 48 h
786-0 = test system: 786-0
A549 = test system: A549
ACHN = test system: ACHN
CCRF-CEM = test system: CCRF-CEM
COLO 205 = test system: COLO 205
DLD-1 = test system: DLD-1
DMS-114 = test system: DMS-114
DMS-273 = test system: DMS-273
HCC 2998 = test system: HCC 2998
HCT-116 = test system: HCT-116
HCT-15 = test system: HCT-15
HL-60 = test system: HL-60
HOP-18 = test system: HOP-18
HOP-62 = test system: HOP-62
HOP-92 = test system: HOP-92
HT-29 = test system: HT-29
IGROV-1 = test system: IGROV-1
K562 = test system: K562
KM-20L2 = test system: KM-20L2
KM12 = test system: KM12
LOX IMVI = test system: LOX IMVI
LXFL 529 = test system: LXFL 529
M14 = test system: M14
M19-MEL = test system: M19-MEL
MOLT-4 = test system: MOLT-4
Malme-3M = test system: Malme-3M
NCI-H226 = test system: NCI-H226
NCI-H460 = test system: NCI-H460
NCI-H522 = test system: NCI-H522
OVCAR-3 = test system: OVCAR-3
OVCAR-4 = test system: OVCAR-4
OVCAR-5 = test system: OVCAR-5
OVCAR-8 = test system: OVCAR-8
RPMI-8226 = test system: RPMI-8226
RXF 393 = test system: RXF 393
SF-268 = test system: SF-268
SF-539 = test system: SF-539
SK-MEL-28 = test system: SK-MEL-28
SK-MEL-2 = test system: SK-MEL-2
SK-MEL-5 = test system: SK-MEL-5
SK-OV-3 = test system: SK-OV-3
SN12C = test system: SN12C
SNB-19 = test system: SNB-19
SNB-78 = test system: SNB-78
SR = test system: SR
SW-620 = test system: SW-620
TK-10 = test system: TK-10
U-251 = test system: U-251
UACC-62 = test system: UACC-62
UO-31 = test system: UO-31
XF498 = test system: XF498

COc1cc(CO)cc2c1[nH]c1ccccc12 [KOENOLINE]
GI50 (786-0): > 25 µM (inactive) | GI50 (A549): > 25 µM (inactive) | GI50 (ACHN): > 25 µM (inactive) | GI50 (CCRF-CEM): > 25 µM (inactive) | GI50 (COLO 205): > 25 µM (inactive) | GI50 (DLD-1): > 25 µM (inactive) | GI50 (DMS-114): > 25 µM (inactive) | GI50 (DMS-273): > 25 µM (inactive) | GI50 (HCC 2998): > 25 µM (inactive) | GI50 (HCT-116): > 25 µM (inactive) | GI50 (HCT-15): > 25 µM | GI50 (HL-60): > 25 µM (inactive) | GI50 (HOP-18): > 25 µM (inactive) | GI50 (HOP-62): > 25 µM (inactive) | GI50 (HOP-92): > 25 µM (inactive) | GI50 (HT-29): > 25 µM (inactive) | GI50 (IGROV-1): > 25 µM (inactive) | GI50 (K562): 11.9 µM (inactive) | GI50 (KM-20L2): > 25 µM (inactive) | GI50 (KM12): > 25 µM (inactive) | GI50 (LOX IMVI): > 25 µM (inactive) | GI50 (LXFL 529): > 25 µM (inactive) | GI50 (M14): > 25 µM (inactive) | GI50 (M19-MEL): > 25 µM (inactive) | GI50 (MOLT-4): > 25 µM (inactive) | GI50 (Malme-3M): > 25 µM (inactive) | GI50 (NCI-H226): 1.73 µM (inactive) | GI50 (NCI-H460): 24.4 µM (inactive) | GI50 (NCI-H522): 24.6 µM (inactive) | GI50 (OVCAR-3): > 25 µM (inactive) | GI50 (OVCAR-4): > 25 µM (inactive) | GI50 (OVCAR-5): 20.8 µM (inactive) | GI50 (OVCAR-8): > 25 µM (inactive) | GI50 (RPMI-8226): > 25 µM (inactive) | GI50 (RXF 393): > 25 µM (inactive) | GI50 (SF-268): > 25 µM (inactive) | GI50 (SF-539): > 25 µM (inactive) | GI50 (SK-MEL-28): > 25 µM (inactive) | GI50 (SK-MEL-2): > 25 µM (inactive) | GI50 (SK-MEL-5): > 25 µM (inactive) | GI50 (SK-OV-3): > 25 µM (inactive) | GI50 (SN12C): > 25 µM (inactive) | GI50 (SNB-19): > 25 µM (inactive) | GI50 (SNB-78): > 25 µM (inactive) | GI50 (SR): > 25 µM (inactive) | GI50 (SW-620): > 25 µM (inactive) | GI50 (TK-10): > 25 µM (inactive) | GI50 (U-251): > 25 µM (inactive) | GI50 (UACC-62): > 25 µM (inactive) | GI50 (UO-31): > 25 µM (inactive) | GI50 (XF498): > 25 µM (inactive)
